Holding throughout (assay): NCI anticancer screen, dose series, 48 h
Assay [1] concerns HCT-15 colon.
The subject of assay [2] is HT29 colon.
Assay [3] deals with IGROV1 ovarian.
Assay [4] relates to LOX IMVI melanoma.
The subject of assay [5] is MCF7 breast.
Assay [6] concerns MDA-MB-435.
The test system of assay [7] is NCI-H226 lung.
The test system of assay [8] is SK-MEL-28 melanoma.
In assay [9] the test system is SNB-19 CNS.
Assay [10] has as its system UACC-257 melanoma.

Values joined by “and” are separate entries in the source; they are usually repeats but may differ in a detail not shown here. Equal values may be shown once.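 Five concentrations, 48 hours, 96-well plates. GI50: concentration for 50% inhibition of growth. TGI is the concentration that stops growth completely.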

Consider `Nc1nc(C(=O)O)c(N=Nc2ccccc2)c(=O)[nH]1`, for which the TGI in assay [1], in assay [2], in assay [3], in assay [4], in assay [5] and in assay [6] was greater than 100 µM each time. Moreover, the TGI in assay [7], in assay [8], in assay [9] and in assay [10] was greater than 100 µM each time.

In the case of `c1ccc2c(CNCCN3CCNCC3)c3ccccc3c(CNCCN3CCNCC3)c2c1`, the GI50 in assay [1] was greater than 100 µM; in assay [2] it was 29.2 µM; in assay [3], 19.8 µM; in [4] it was 12.9 µM; in assay [5], 11.5 µM; in assay [6] it was 11.7 µM. Also, the GI50 in [7] is 10.3 µM; in assay [8], 42.8 µM; in [9], 20.7 µM; in assay [10], 62 µM. In addition, the TGI is greater than 100 µM in assay [1]; greater than 100 µM in [2]; 85.3 µM in [3]; 29.5 µM in [4]; 50.2 µM in assay [5]; 27.2 µM in assay [6]. Further, the TGI in assay [7] was 37.6 µM; in assay [8], greater than 100 µM; in assay [9] it was greater than 100 µM; in assay [10], greater than 100 µM.

Turning to `O=S(=O)(NCCCNc1nccc(-c2c(-c3ccc(F)cc3)nc3sccn23)n1)c1ccc(F)cc1`, the GI50 in [1] is 3.92 µM; in assay [2], 3.52 µM; in [3], 8.85 µM; in [4], 6.28 µM; in [5], 3.24 µM; in [6], 3.69 µM. Moreover, the GI50 in assay [7] was 4.76 µM; in [8], 20.3 µM; in assay [9], 62.1 µM; in [10] it was 21.9 µM. Further, the TGI was greater than 100 µM in assay [1]; 21.4 µM in assay [2]; greater than 100 µM in assay [3]; greater than 100 µM in assay [4]; greater than 100 µM in assay [5]; greater than 100 µM in assay [6]. In addition, the TGI in [7] was 77.5 µM; in [8], greater than 100 µM; in assay [9], greater than 100 µM; in assay [10], greater than 100 µM.

For the compound `O=C1/C(=C/c2ccccc2[N+](=O)[O-])COc2ccc(O)cc21`, the GI50 in assay [1] was 0.417 µM; in assay [2] it was 0.397 µM; in assay [3], 0.529 µM; in assay [4] it was 1.05 µM; in assay [5], 0.697 µM; in [6] it was 2.18 µM. Also, the GI50 in assay [7] is 2.4 µM; in [8] it was 1.55 µM; in [9], 4.15 µM; in [10] it was 2.16 µM. The TGI is 2.06 µM in assay [1]; 3.07 µM in assay [2]; 2.08 µM in [3]; 2.27 µM in [4]; 8.75 µM in assay [5]; 5.96 µM in assay [6]. The TGI in assay [7] was determined as 10.9 µM; in [8], 3.14 µM; in assay [9], 16.6 µM; in [10], 7.13 µM.

For the compound `CN(C)c1nc(N)c(C#N)c(C#N)c1C#N`, the TGI in assay [1], in assay [2], in assay [3], in [4], in assay [5] and in assay [6] was greater than 10 µM throughout. Moreover, the TGI in [7], in assay [8], in [9] and in assay [10] was greater than 10 µM each time.

In the case of `COc1cc(C(=O)/C=C/c2c(C(F)(F)F)nc3ccccn23)cc(OC)c1OC`, the GI50 was 2.1 µM in [1]; 1.93 µM in [2]; 2.23 µM in [3]; 1.66 µM in assay [4]; 1.44 µM in assay [5]; 2.26 µM in assay [6]. For the same compound, the GI50 in assay [7] is 3.55 µM; in assay [8], 1.93 µM; in [9] it was 1.93 µM; in assay [10], 2.05 µM. Moreover, the TGI turned out to be 7.57 µM in assay [1]; 4.45 µM in [2]; 6.02 µM in [3]; 3.77 µM in [4]; 6.41 µM in assay [5]; 8.76 µM in [6]. Besides, the TGI was determined as 21.7 µM in [7], 3.74 µM in assay [8], 3.85 µM in [9] and 5.08 µM in assay [10].

On to `c1ccc(CN2COc3c(ccc4c5c(ccc34)CN(Cc3ccccc3)CO5)C2)cc1`, for which the TGI in assay [1], in assay [2], in assay [3], in assay [4], in assay [5] and in assay [6] was greater than 100 µM each time. The TGI in assay [7], in [8], in assay [9] and in assay [10] was greater than 100 µM throughout.

On to `S=C(NCc1ccc2c(c1)OCO2)N1CCN(c2ncnc3c2oc2ccccc23)CC1`, for which the GI50 is greater than 100 µM in assay [1]; 18 µM in [2]; greater than 100 µM in assay [3]; greater than 100 µM in assay [4]; 4.83 µM in assay [5]; 8.16 µM in assay [6]. Further, the GI50 in [7] was 3.25 µM; in [8], greater than 100 µM; in [9] it was greater than 100 µM; in [10], 1.71 µM. Besides, the TGI in assay [1], in assay [2], in assay [3], in assay [4], in assay [5] and in assay [6] was greater than 100 µM throughout. Also, the TGI in [7] was greater than 100 µM; in [8] it was greater than 100 µM; in [9], greater than 100 µM; in assay [10] it was greater than 33.7 µM.

With `COc1c(OC(C)C)cc2cc(O)c(C(=O)NC3Cc4ccc(c(Cl)n4)O[C@@H]4C=C5C#C/C(=C\C#CC6OC56C4OC4CC(C)(O)C(O)C(C)O4)C(OC4CC(O)C(N(C)C)C(C)O4)COC3=O)cc2c1OC` (stereo not given in full), the GI50 in assay [1] is > 36.3 µM and 9.57 µg/mL; in assay [2], > 36.3 µM and 0.714 µg/mL; in assay [3] it was > 36.3 µM and 37.5 µg/mL; in [4], 0.529 µg/mL; in [7], 2.8 µg/mL; in [8] it was 3.16 µg/mL. Moreover, the GI50 was 17.7 µM and 0.956 µg/mL in assay [9]; 21.9 µM and 1.08 µg/mL in assay [10]. Besides, the TGI in assay [1] was > 36.3 µM and 37.5 µg/mL; in [2], > 36.3 µM and 37.5 µg/mL; in [3] it was > 36.3 µM and 37.5 µg/mL; in assay [4], 17.8 µg/mL; in assay [5], greater than 36.3 µM; in assay [6], greater than 36.3 µM. Besides, the TGI in assay [7] is > 36.3 µM and 37.5 µg/mL; in assay [8], > 36.3 µM and 37.5 µg/mL; in assay [9] it was > 36.3 µM and 37.5 µg/mL; in [10], > 36.3 µM and 37.5 µg/mL.

Regarding `O=C(c1cc(Cc2n[nH]c(=O)c3ccccc23)ccc1F)N1CCN(C(=O)C2CC2)CC1`, the GI50 in assay [1] is greater than 100 µM; in assay [2], greater than 100 µM; in [3], 56.8 µM and 68.3 µM; in assay [4], 18.9 µM and 66.3 µM; in assay [5], 47.4 µM and 34.2 µM; in [6] it was 58 µM and 97.6 µM. Further, the GI50 was 41.3 µM and 48.8 µM in [7]; greater than 100 µM in assay [8]; 80.5 µM and > 85.1 µM in [9]; greater than 100 µM in assay [10]. Moreover, the TGI in [1], in [2], in [3], in [4], in assay [5] and in assay [6] was greater than 100 µM in each case. Further, the TGI in assay [7], in assay [8], in [9] and in assay [10] was greater than 100 µM throughout.

With `COc1ccc(COc2cc3oc(=O)c4cc(C(C)O)ccc4c3cc2OC)cc1` (stereo not given), the GI50 was 12 µM in [1]; 11.5 µM in assay [3]; 18.7 µM in assay [4]; 9.49 µM in assay [5]; 4.33 µM in assay [6]; 12.3 µM in assay [7]. In addition, the GI50 is 14.3 µM in assay [8], 16 µM in [9] and 19.7 µM in assay [10]. Besides, the TGI is greater than 100 µM in assay [1]; greater than 100 µM in assay [2]; greater than 83.1 µM in assay [3]; greater than 100 µM in assay [4]; greater than 100 µM in [5]; greater than 22.9 µM in assay [6]. Besides, the TGI in [7] was 49.8 µM; in assay [8], greater than 91.7 µM; in [9] it was 99.3 µM; in assay [10], greater than 74.6 µM.

On to `[Cl][Cu][Cl]`, for which the GI50 in assay [1], in assay [2], in assay [3], in [4], in [5] and in [6] was greater than 10 µM each time. The GI50 in assay [7], in assay [8], in assay [9] and in [10] was greater than 10 µM throughout. For the same compound, the TGI in assay [1], in assay [2], in assay [3], in [4], in [5] and in [6] was greater than 10 µM each time. Further, the TGI in [7], in assay [8], in assay [9] and in assay [10] was greater than 10 µM in each case.

As to `Nc1nc2ccccc2c2c1S(=O)(=O)c1ccc(Cl)cc1C2=O`, the GI50 in assay [1] is 0.812 µM; in assay [2], 1.63 µM; in assay [3], 1.7 µM; in assay [4] it was 0.873 µM; in assay [5], 1.49 µM; in assay [6], 1.65 µM. The GI50 in [7] was 2.14 µM; in assay [8], 2.09 µM; in assay [9] it was 2.52 µM; in assay [10], 1.96 µM. The TGI was 2.31 µM in [1]; 5.88 µM in assay [2]; greater than 50 µM in assay [3]; 1.84 µM in [4]; greater than 50 µM in assay [5]; greater than 50 µM in assay [6]. Also, the TGI in assay [7] is 17.3 µM; in assay [8] it was 14.1 µM; in assay [9], greater than 50 µM; in [10] it was greater than 50 µM.

On to `CN(C)CCCn1c2c(c3cc4c(cc3c1=O)OCO4)C(=O)c1ccccc1-2`, for which the GI50 is less than 0.0275 µM in [1]; 0.0472 µM in assay [2]; 3.33 µM in [3]; 0.0635 µM in [4]; 6.84 µM in assay [5]; 1.49 µM in assay [6]. Besides, the GI50 was 3.25 µM in [7], 4.68 µM in assay [8], 2.84 µM in assay [9] and 1.54 µM in assay [10]. Moreover, the TGI was 4.35 µM in assay [1]; greater than 100 µM in [2]; 12.6 µM in assay [3]; 0.557 µM in [4]; greater than 26.8 µM in assay [5]; 5.81 µM in assay [6]. Moreover, the TGI is 11.3 µM in [7], greater than 100 µM in [8], greater than 100 µM in assay [9] and 14.9 µM in [10].

As for `Nc1nc(-c2ccc(Cl)cc2)nc2c1sc(=S)n2-c1ccccc1`, the GI50 in assay [1] was 4.92 µM; in assay [2], 6.09 µM; in [3] it was 3.3 µM; in assay [4], 2.07 µM; in assay [5], 4.29 µM; in assay [6] it was 6.65 µM. The GI50 was 2.78 µM in assay [7], 5.22 µM in assay [8], 3.55 µM in assay [9] and 6.58 µM in [10]. The TGI was greater than 100 µM in assay [1]; greater than 100 µM in [2]; 17 µM in assay [3]; 4.91 µM in assay [4]; greater than 100 µM in assay [5]; greater than 100 µM in assay [6]. The TGI in assay [7] is 6.73 µM; in [8], greater than 100 µM; in [9], 10.1 µM; in [10], 32 µM.

As to `C/C(=N\NC(=S)N1CCN(c2ccccn2)CC1)c1ncccn1`, the GI50 is 0.013 µM in assay [1]; less than 0.0263 µM in assay [2]; less than 0.0121 µM in assay [3]; less than 0.0183 µM in assay [4]; 0.414 µM in assay [6]; 1.71 µM in assay [7]. The values for the GI50 in assay [8] and in assay [10] were 0.566 µM and 0.0339 µM, respectively. Also, the TGI was 5.48 µM and 16.7 µM in [1]; 7.55 µM and 14.9 µM in [2]; 4.31 µM and 16.3 µM in [3]; 9.45 µM and 2.53 µM in [4]; 13.4 µM in assay [5]; 11.9 µM in assay [6]. Also, the TGI in [7] is 5.78 µM and 11 µM; in assay [8], 7.1 µM and 14.1 µM; in [9], 19 µM; in [10] it was 1.42 µM and 4.27 µM.
